From patent US10168342B2, “Lipid probes and uses thereof” (THE SCRIPPS RESEARCH INSTITUTE, priority 2015, dated 2019)

Key:
[1] = target: AEA-DA lipid probe targets in A549 cells (Homo sapiens, UniProt P21796); assay: In situ competitive SILAC profiling with AEA-DA probe in A549 cells; details: competitor 25 μM
[2] = target: AEA-DA lipid probe targets in A549 cells (Homo sapiens, UniProt P67812); assay: as above; details: competitor 25 μM
[3] = target: AEA-DA lipid probe targets in A549 cells (Homo sapiens, UniProt Q14534); assay: as above; details: competitor 25 μM
Chain of AEA-DA lipid probe targets in A549 cells (Homo sapiens, UniProt Q14534) (Q14534 whole entry): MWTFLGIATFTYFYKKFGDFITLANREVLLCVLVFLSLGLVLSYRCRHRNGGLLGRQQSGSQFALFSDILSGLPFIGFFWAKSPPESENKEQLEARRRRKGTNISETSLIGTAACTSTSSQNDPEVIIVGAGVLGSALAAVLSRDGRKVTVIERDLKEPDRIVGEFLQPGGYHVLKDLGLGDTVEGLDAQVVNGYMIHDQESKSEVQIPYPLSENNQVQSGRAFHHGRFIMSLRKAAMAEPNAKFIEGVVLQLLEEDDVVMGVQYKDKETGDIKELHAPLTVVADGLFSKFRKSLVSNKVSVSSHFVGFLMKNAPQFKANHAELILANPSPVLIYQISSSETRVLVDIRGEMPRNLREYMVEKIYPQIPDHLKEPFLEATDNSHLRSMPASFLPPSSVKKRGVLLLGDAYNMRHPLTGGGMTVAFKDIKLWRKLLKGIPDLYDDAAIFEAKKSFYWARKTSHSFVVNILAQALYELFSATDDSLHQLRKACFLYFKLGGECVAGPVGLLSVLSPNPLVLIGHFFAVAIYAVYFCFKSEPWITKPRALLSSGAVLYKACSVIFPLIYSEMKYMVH

[4] = target: AEA-DA lipid probe targets in A549 cells (Homo sapiens, UniProt O95470); assay: as above; details: competitor 25 μM
Chain of AEA-DA lipid probe targets in A549 cells (Homo sapiens, UniProt O95470) (O95470 whole entry): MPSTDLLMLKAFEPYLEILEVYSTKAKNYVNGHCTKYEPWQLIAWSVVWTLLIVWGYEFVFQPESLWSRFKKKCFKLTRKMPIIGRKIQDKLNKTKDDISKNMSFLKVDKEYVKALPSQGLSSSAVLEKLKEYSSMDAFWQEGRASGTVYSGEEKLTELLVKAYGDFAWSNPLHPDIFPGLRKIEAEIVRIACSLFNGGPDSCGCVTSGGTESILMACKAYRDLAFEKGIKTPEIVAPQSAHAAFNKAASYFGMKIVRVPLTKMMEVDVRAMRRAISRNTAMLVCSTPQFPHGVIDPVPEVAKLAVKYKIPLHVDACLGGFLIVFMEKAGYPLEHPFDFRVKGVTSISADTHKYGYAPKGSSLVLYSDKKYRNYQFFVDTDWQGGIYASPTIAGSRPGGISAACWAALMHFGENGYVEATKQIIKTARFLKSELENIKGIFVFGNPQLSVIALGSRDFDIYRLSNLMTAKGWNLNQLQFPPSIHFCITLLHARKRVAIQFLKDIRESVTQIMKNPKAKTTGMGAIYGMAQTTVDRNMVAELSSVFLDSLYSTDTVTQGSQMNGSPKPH

[5] = tested on: AEA-DA lipid probe targets in A549 cells; assay: as above; details: competitor 25 μM
[6] = target: AEA-DA lipid probe targets in A549 cells (Homo sapiens, UniProt Q86XL3); assay: as above; details: competitor 25 μM
Chain of AEA-DA lipid probe targets in A549 cells (Homo sapiens, UniProt Q86XL3) (Q86XL3 whole entry): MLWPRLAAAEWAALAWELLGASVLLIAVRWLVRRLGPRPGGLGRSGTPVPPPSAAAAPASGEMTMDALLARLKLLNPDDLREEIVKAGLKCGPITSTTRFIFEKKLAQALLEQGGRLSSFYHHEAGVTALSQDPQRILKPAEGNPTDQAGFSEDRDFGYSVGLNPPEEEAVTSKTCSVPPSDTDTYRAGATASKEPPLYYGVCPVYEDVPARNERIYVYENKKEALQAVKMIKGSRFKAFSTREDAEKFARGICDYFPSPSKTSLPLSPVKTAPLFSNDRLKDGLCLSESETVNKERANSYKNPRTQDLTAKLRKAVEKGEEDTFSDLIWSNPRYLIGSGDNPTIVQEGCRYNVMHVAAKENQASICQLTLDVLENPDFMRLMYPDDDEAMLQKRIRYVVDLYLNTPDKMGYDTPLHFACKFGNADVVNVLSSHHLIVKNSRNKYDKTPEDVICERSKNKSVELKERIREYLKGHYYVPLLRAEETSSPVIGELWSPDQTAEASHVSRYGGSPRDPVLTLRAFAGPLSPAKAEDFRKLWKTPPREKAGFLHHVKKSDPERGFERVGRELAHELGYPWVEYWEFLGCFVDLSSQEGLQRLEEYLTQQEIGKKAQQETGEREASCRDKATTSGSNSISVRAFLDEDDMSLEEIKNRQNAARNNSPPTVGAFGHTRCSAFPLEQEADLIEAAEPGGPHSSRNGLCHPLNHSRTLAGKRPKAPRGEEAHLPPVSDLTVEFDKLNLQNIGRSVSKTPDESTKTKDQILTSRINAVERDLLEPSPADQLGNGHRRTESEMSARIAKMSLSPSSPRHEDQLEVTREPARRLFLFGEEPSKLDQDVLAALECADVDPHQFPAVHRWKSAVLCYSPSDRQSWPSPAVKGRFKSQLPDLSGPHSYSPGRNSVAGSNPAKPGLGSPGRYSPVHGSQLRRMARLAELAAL

[7] = target: AEA-DA lipid probe targets in A549 cells (Homo sapiens, UniProt P30519); assay: as above; details: competitor 25 μM
Chain of AEA-DA lipid probe targets in A549 cells (Homo sapiens, UniProt P30519) (P30519 whole entry): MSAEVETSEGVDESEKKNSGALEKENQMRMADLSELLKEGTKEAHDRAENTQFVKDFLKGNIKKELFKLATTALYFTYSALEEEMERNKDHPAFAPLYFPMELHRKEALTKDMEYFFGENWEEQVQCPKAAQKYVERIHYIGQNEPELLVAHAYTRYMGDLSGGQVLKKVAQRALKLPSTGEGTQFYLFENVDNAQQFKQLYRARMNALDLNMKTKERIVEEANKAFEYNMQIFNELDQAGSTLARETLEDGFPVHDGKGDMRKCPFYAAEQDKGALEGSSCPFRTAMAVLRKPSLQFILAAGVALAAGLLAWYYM

humanized rat FAAH = target: T1, humanized rat FAAH (Rattus norvegicus, UniProt P97612, A377T/F194Y/I491V/L192F/S435N/V495M); assay: FAAH activity by AEA hydrolysis, purified enzyme; type: biochemical; details: for inhibition of FAAH activity (AEA hydrolysis): 50 or 100 μM; for IC50: read-out: IC50 against purified recombinant FAAH
T1 sequence (P97612 30-579 L192F/F194Y/A377T/S435N/I491V/V495M limits assumed): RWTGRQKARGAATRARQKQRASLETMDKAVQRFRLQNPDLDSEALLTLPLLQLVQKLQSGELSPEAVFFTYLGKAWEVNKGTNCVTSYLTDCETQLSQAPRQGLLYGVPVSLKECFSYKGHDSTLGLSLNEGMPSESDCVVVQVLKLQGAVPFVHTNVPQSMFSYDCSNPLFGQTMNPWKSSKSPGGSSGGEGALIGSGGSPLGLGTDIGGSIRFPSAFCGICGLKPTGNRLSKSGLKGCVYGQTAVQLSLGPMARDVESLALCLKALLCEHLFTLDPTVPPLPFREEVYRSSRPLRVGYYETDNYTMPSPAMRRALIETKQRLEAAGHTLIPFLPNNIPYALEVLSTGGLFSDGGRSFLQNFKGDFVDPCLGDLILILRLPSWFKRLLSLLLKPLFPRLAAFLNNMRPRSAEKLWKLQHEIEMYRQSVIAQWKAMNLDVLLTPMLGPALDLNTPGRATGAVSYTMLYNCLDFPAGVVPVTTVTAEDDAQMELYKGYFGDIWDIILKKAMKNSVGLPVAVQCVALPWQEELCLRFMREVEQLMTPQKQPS
Procedure: FAAH activity was measured by AEA hydrolysis: The membrane fraction of Neuro2a lysates (200 μL, 2.0 mg/mL) was incubated with DMSO or the test compound (1.0-250 μM) at 37° C. After 15 min, AEA-d8 (25 μM) was added and the samples were incubated for an additional 30 min and then quenched by the addition of two volumes of CHCl3:MeOH (2:1) containing pentadecanoic acid (PDA) (1.0 nmol) as an internal standard. After centrifuging (2,000×g, 5 min, 4° C.) to separate the organic and aqueous layers, the lower organic layer was transferred to a clean vial and analyzed by LC/MS as previously described. (Long et al., 2009) Pure humanized rat FAAH (Mileni et al., 2008) (5.0 ng/μL) was assayed in the same manner. Product levels were quantified by determining peak areas in relation to PDA.

[8] = tested on: PGF2α-EA formation in PMA-stimulated A549 cells; assay: Oxidative metabolism of AEA in A549 cells (prostamide formation); type: cell-based, human; details: MJN228, KML110 5 and 25 μM, others 25 μM, AEA 20 μM
Procedure: The media from the PMA-stimulated cells was removed and cells were washed with DPBS (2×3 mL) before adding freshly prepared media solutions containing vehicle or compound (2 mL/plate). After incubating for 30 min at 37° C., a solution of BHT-stabilized AEA (60 μM AEA; 60 μM BHT) in the same media was added to the cells (1.0 mL/plate) and incubated for 1 h. The media from the cells was then transferred to glass vials containing MS internal standards [PGE2-EA-d4 (25 pmol)], centrifuged (1,500×g, 5 min) to remove detached cells and then loaded onto pre-equilibrated reversed phase SPE cartridges (Phenomenex, Strata-X 33 μm, 60 mg/3 mL). After washing cartridges with 5% MeOH/H2O (3 mL), prostamides were eluted with MeOH (1.0 mL) and the eluent was concentrated under a stream of N2. Concentrated samples were stored at −80° C. until the day of analysis when they were reconstituted in Mobile Phase A [100 μL, 30% CH3CN in H2O (0.1% AcOH, 5.0 mM NH4OAc)].
Media extracts were analyzed by LC/MS/MS with LC separation performed on a Kinetex reversed phase C18 column (50×4.6 mm, 2.6 μm particle size, 100Å). Mobile phase A was composed of 30% (v/v) CH3CN in H2O and Mobile phase B was composed of 50% (v/v) CH3CN in i-PrOH. Both mobile phases also contained 0.1% AcOH and NH4OAc (5 mM) to facilitate ionization and LC separation. […]
MS analysis of prostamides was performed on an Agilent 6460 Triple Quadrupole LC/MS System with operating conditions as follows: gas temperature (300° C.); gas flow (9 L·min^−1); nebulizer (45 psi); sheath gas temperature (300° C.); sheath gas flow (12 L·min^−1); positive and negative capillary voltage (3.5 kV). Analysis was achieved using multiple reaction monitoring with precursor to product ion transitions, optimized collision energies (CE) as listed below and prostamide quantification was achieved by normalized of analyte peaks relative to a deuterated prostamide internal standard (PGE2-EA-d4) to account for differences in extraction efficiency. […]

Chain of AEA-DA lipid probe targets in A549 cells (Homo sapiens, UniProt P21796) (P21796 whole entry): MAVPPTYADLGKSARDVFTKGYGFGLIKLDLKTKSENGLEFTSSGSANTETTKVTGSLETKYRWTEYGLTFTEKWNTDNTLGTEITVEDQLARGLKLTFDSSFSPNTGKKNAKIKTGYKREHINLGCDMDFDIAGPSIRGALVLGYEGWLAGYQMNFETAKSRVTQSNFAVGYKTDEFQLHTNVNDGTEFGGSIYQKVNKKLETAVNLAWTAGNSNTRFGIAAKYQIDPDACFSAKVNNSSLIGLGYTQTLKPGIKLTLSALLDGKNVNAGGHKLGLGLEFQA
Chain of AEA-DA lipid probe targets in A549 cells (Homo sapiens, UniProt P67812) (P67812 whole entry): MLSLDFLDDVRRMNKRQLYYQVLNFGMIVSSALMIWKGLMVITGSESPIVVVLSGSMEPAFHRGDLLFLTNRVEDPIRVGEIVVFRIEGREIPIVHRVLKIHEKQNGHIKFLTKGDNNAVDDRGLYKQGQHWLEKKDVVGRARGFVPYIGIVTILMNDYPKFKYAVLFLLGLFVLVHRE

SMILES | SILAC ratio, VDAC1 (P21796) [1] | SILAC ratio, SEC11A (P67812) [2] | SILAC ratio, SQLE (Q14534) [3] | SILAC ratio, SGPL1 (O95470) [4] | SILAC ratio, PGRMC2 (Q80UU9) [5] | SILAC ratio, PSAP (P07602) [5] | SILAC ratio, TOMM22 (Q9CPQ3) [5] | SILAC ratio, UGT1A7 (Q9HAW7) [5] | SILAC ratio, ANKLE2 (Q86XL3) [6] | SILAC ratio, HMOX2 (P30519) [7] | inhibition of FAAH activity (AEA hydrolysis) (humanized rat FAAH) | IC50 (humanized rat FAAH) | conversion of exogenous AEA to PGF2α-EA [8]
O=C(/C=C/c1cccnc1)NCCCCC1CCN(C(=O)c2ccccc2)CC1 [FK-866, reference compound] | 0.8 | 0.6 | 0.7 | 0.8 | 0.7 | 0.7 | 0.6 | 1.5 | 0.6 | 0.7 |  |  | 
CN1CCN(C(=O)c2c(-c3ccccc3)c3cc([N+](=O)[O-])ccc3n2C)CC1 [KML110, (1-Methyl-5-nitro-3-phenyl-1H-indol-2-yl)(4-methylpiperazin-1-yl)methanone] |  |  |  |  |  |  |  |  |  |  | do not substantially inhibit | > 100 µM | suppress
CN1CCN(C(=O)c2[nH]c3ccc([N+](=O)[O-])cc3c2-c2ccccc2)CC1 [MJN228, (4-Methylpiperazin-1-yl)(5-nitro-3-phenyl-1H-indol-2-yl)methanone] |  |  |  |  |  |  |  |  |  |  | do not substantially inhibit | > 100 µM | suppress
